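1) Cells in 96-well plates. 2) Compound, 48 h, 5 concentrations. 3) Linear interpolation between surrounding doses. 4) Unreached endpoint = highest concentration. GI50 = concentration required for 50% inhibition of growth.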 Calls of active or inactive are those of the source. Rule as the data show it: active = GI50 up to about 1.1 µM and inactive = higher.
What was measured:
Experiment in all cases: NCI tumour cell line growth inhibition, 48 h
M19-MEL = tested on: M19-MEL
MDA-N = tested on: MDA-N
T47D = tested on: T47D
PC-3 = tested on: PC-3
SR = tested on: SR
786-0 = tested on: 786-0
LXFL 529 = tested on: LXFL 529
BT-549 = tested on: BT-549
RXF 631 = tested on: RXF 631

Measured: GI50

Nc1c(S(=O)(=O)O)cc2cc(S(=O)(=O)O)ccc2c1/N=N/c1ccc(-c2ccc(/N=N/c3c(N)c(S(=O)(=O)O)cc4cc(S(=O)(=O)O)ccc34)c(S(=O)(=O)O)c2)cc1
inactive: M19-MEL > 100 µM

CC(C)N1CSC(=S)N(Cc2ccccc2)C1
inactive: MDA-N 2.42 µM | T47D 4.29 µM | PC-3 3.75 µM | SR 1.64 µM

COc1cccc2[s+]snc12
inactive: 786-0 33.6 µM | LXFL 529 43.3 µM | M19-MEL 22.8 µM | SR 22.2 µM

Cn1c(-c2cccs2)cc(-c2cccs2)c1-c1ccco1
inactive: 786-0 69.2 µM | MDA-N 39.5 µM | BT-549 > 100 µM | PC-3 72.6 µM | SR 14.8 µM
active: T47D 1.06 µM

CC1(C)C(N2CCOCC2)CS1(=O)=O (stereo not drawn)
inactive: 786-0 > 10 µM | MDA-N > 10 µM | BT-549 > 10 µM | T47D > 10 µM | PC-3 > 10 µM

CC1=C(C(=O)Nc2cccc(Cl)c2)C(c2ccccc2O)C(C(=O)Nc2cccc(Cl)c2)=C(C)N1
inactive: 786-0 15.7 µM | LXFL 529 21.8 µM | M19-MEL 19.4 µM

CCOC(=O)C1=C(C)N(NC(N)=O)C2(O)CCCC(=O)C12C (stereo not drawn)
inactive: RXF 631 > 100 µM | LXFL 529 > 100 µM | SR > 10 µM

c1ccc(C(c2ccccc2)[P+](c2ccccc2)(c2ccccc2)c2ccccc2)cc1
active: M19-MEL 0.397 µM

COc1ccc(NC(=O)C(=O)C(C(=O)c2ccccc2)C2OC(=O)c3ccccc32)c([N+](=O)[O-])c1 (stereo not drawn)
inactive: 786-0 > 100 µM | LXFL 529 > 100 µM | M19-MEL > 100 µM | SR > 100 µM

Cc1cc(N(CCOS(C)(=O)=O)CCOS(C)(=O)=O)ccc1C=O
inactive: MDA-N 11.4 µM | BT-549 15.2 µM | PC-3 20 µM

O=C(NN1C(=O)C(Cl)C1c1ccc([N+](=O)[O-])cc1)c1ccccc1O (stereo not drawn)
inactive: LXFL 529 > 100 µM | M19-MEL > 100 µM | SR > 100 µM

CC(=O)NNc1nc(C)c(C(=O)NNC(=O)C(=O)Nc2ccc([N+](=O)[O-])cc2[N+](=O)[O-])s1
inactive: RXF 631 68.9 µM | LXFL 529 93.1 µM | SR 81.1 µM

COc1cccc2c1C(=O)c1c(O)c3c(c(O)c1C2=O)CC(O)(C(=O)CO)CC3OC1CC(N)C(I)C(C)O1 (stereo not drawn)
inactive: M19-MEL 2.7 µM

CCOC(=O)C1=C(C)N(c2ccc(OC)cc2)C2(O)C=CC(O)=C3C(=O)c4ccccc4C(=O)C312 (stereo not drawn)
inactive: MDA-N 8.61 µM | BT-549 14 µM | T47D 12.5 µM | PC-3 5.53 µM

CC1(c2sccc2Cl)CC(c2sccc2Cl)=C(C#N)C(=C(C#N)C#N)N1 (stereo not drawn)
inactive: 786-0 18.4 µM | MDA-N 17.3 µM | BT-549 17.8 µM | T47D 14.2 µM | PC-3 18.7 µM

S=CN1CCCCC1
inactive: 786-0 > 100 µM | MDA-N > 100 µM | BT-549 > 100 µM | T47D > 100 µM | PC-3 > 100 µM | SR > 100 µM

N#C/C(=C\NC(=S)Nc1ccc(S(=O)(=O)Nc2ccccn2)cc1)C(N)=O
inactive: 786-0 > 100 µM | MDA-N > 100 µM | PC-3 > 100 µM | SR > 100 µM

Nc1nc2cc(COc3ccc(C(=O)O)cc3)ccc2nc1-c1ccccc1
inactive: MDA-N > 10 µM | T47D > 10 µM | PC-3 > 10 µM | SR > 10 µM

CC(=O)NC(c1nc2cc(C)c(C)cc2[nH]1)c1nc2cc(C)c(C)cc2[nH]1
inactive: MDA-N 19.1 µM | BT-549 23.2 µM | T47D 43 µM | PC-3 24.8 µM
